Laboratory results: the supplement of paper PMC10307832

Experiments:
Assay in all cases: relative viability (nuclei count vs DMSO), 5 days (fraction); higher = more cells survive
Mirin + Pemetrexed = compound: N=C1NC(=O)/C(=C/c2ccc(O)cc2)S1 [Mirin] + Nc1nc2[nH]cc(CCc3ccc(C(=O)N[C@@H](CCC(=O)O)C(=O)O)cc3)c2c(=O)[nH]1 [Pemetrexed] (partner 0.2 µM)
How it was run: (§1)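 One day after seeding in 1536-well plates, lung cancer cell lines were dosed by pin tool. Dosing was either single-drug or a fixed anchor-drug dose plus five library-drug doses (not always all listed) in √10 steps. After 5 days, nuclei were stained in one fix-and-stain step and counted on 4× images, and relative viability is the nuclei count of treated wells over that of vehicle wells, given as the median of duplicate plates.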

Mirin + Dasatinib = compound: N=C1NC(=O)/C(=C/c2ccc(O)cc2)S1 [Mirin] + Cc1nc(Nc2ncc(C(=O)Nc3c(C)cccc3Cl)s2)cc(N2CCN(CCO)CC2)n1 [Dasatinib] (partner 0.075 µM)
How it was run: as §1

Mirin + Navitoclax = compound: N=C1NC(=O)/C(=C/c2ccc(O)cc2)S1 [Mirin] + CC1(C)CCC(c2ccc(Cl)cc2)=C(CN2CCN(c3ccc(C(=O)NS(=O)(=O)c4ccc(N[C@H](CCN5CCOCC5)CSc5ccccc5)c(S(=O)(=O)C(F)(F)F)c4)cc3)CC2)C1 [Navitoclax] (partner 0.5 µM)
How it was run: as §1

Mirin + Foretinib = compound: N=C1NC(=O)/C(=C/c2ccc(O)cc2)S1 [Mirin] + COc1cc2c(Oc3ccc(NC(=O)C4(C(=O)Nc5ccc(F)cc5)CC4)cc3F)ccnc2cc1OCCCN1CCOCC1 [Foretinib] (partner 0.25 µM)
How it was run: as §1

Cell Line	relative viability (Mirin + Pemetrexed; first compound 0.25 µM)	relative viability (Mirin + Pemetrexed; first compound 0.7906 µM)	relative viability (Mirin + Pemetrexed; first compound 2.5 µM)	relative viability (Mirin + Pemetrexed; first compound 7.906 µM)	relative viability (Mirin + Pemetrexed; first compound 25 µM)	relative viability (Mirin + Dasatinib; first compound 0.25 µM)	relative viability (Mirin + Dasatinib; first compound 0.7906 µM)	relative viability (Mirin + Dasatinib; first compound 2.5 µM)	relative viability (Mirin + Dasatinib; first compound 7.906 µM)	relative viability (Mirin + Dasatinib; first compound 25 µM)	relative viability (Mirin + Navitoclax; first compound 0.25 µM)	relative viability (Mirin + Navitoclax; first compound 0.7906 µM)	relative viability (Mirin + Navitoclax; first compound 2.5 µM)	relative viability (Mirin + Navitoclax; first compound 7.906 µM)	relative viability (Mirin + Navitoclax; first compound 25 µM)	relative viability (Mirin + Foretinib; first compound 0.25 µM)	relative viability (Mirin + Foretinib; first compound 0.7906 µM)	relative viability (Mirin + Foretinib; first compound 2.5 µM)	relative viability (Mirin + Foretinib; first compound 7.906 µM)	relative viability (Mirin + Foretinib; first compound 25 µM)
201T	0.307	0.309	0.337	0.336	0.302	0.595	0.636	0.545	0.474	0.598	1.18	1.27	1.18	1.32	1.33	1.1	1.24	1.17	1.06	1.17
A549											1.09	1.38	1.08	1.32	1.31	0.89	1.02	0.902	0.956	1.04
A-427	1	0.957	1.02	0.991	0.934	0.766		0.78	0.714	0.632	0.942		0.955	0.941	1.11	1.06		1.07	1.05	0.607
ABC-1						0.682	0.525	0.62	0.536	0.375						1.35	1.08	0.971	1.03	0.587
BEN	0.661	0.779	0.799	0.667	0.581	0.321	0.315	0.308	0.305	0.246	0.0987	0.0819	0.0674	0.0737	0.0559	0.567	0.654	0.68	0.552	0.386
CAL-12T	1.15	1.11	1.15	1.29	1.37	0.489		0.503	0.347	0.28	0.854	1.49	1.26	1.26	1.66	1.16		1.12	1.04	1.31
COR-L23	0.2	0.204	0.209	0.187	0.204	0.55	0.563	0.534	0.553	0.524	1.02	1.06	1.04	1.07	0.966	1.07	1.14	0.879	1.01	1.05
COR-L 105	1.08	1.21	1.11	1.11	1.07	0.347	0.328	0.382	0.288	0.261	1.02	0.817	0.884	0.703	0.719	1.06	0.865	1.25	1.17	0.781
Calu-6											0.879	1	0.839	0.806	0.794	0.902	1.03	0.918	0.903	0.865
ChaGo-K-1	0.263	0.252	0.255	0.259	0.256	0.504	0.575	0.541	0.542	0.39	0.974		0.997	0.849	0.85	0.963	0.921	0.965	0.841	0.652
EBC-1											0.419	0.479	0.456	0.368	0.144	0.103	0.116	0.102	0.102	0.0881
EKVX	0.379	0.318	0.397	0.502	0.346	0.671		0.565	0.494	0.564	1.01	0.932	1.11	0.875	0.968	0.757	0.73	0.848	0.735	0.932
EMC-BAC-2	0.475	0.431	0.452	0.375	0.41	0.328	0.324	0.349	0.271	0.249	1.16	1.29	1.17	1.08	1.17	0.976	0.998	1.07	1.06	1.09
EPLC-272H	0.371	0.307	0.309	0.323	0.192	0.416		0.413	0.301	0.232	1.08		1.09	0.965	0.808	0.744		0.602	0.519	0.306
H3255	0.525	0.605	0.626	0.54	0.571	0.383	0.315	0.347	0.275	0.381	0.499	0.59	0.628	0.513	0.47	1.11	0.825	0.929	0.676	0.998
HARA	0.235		0.236	0.227	0.293	0.194		0.222	0.247	0.195	1.07	1.21	1.14	1.28	1.2	0.817		0.845	0.902	0.708
HCC-15	0.217	0.233	0.218	0.196	0.203	0.608	0.655	0.599	0.632	0.404	0.755	0.689	0.762	0.713	0.52	1.1	1	1.06	0.819	0.882
HCC-44	0.604	0.835	0.677	0.633	0.694						1	0.967	0.916	0.945	0.989					
HCC-78	0.952	0.882	0.882	0.903	0.871	0.361	0.283	0.577	0.374	0.31	0.758	0.712	0.866	0.847	0.674	0.538	0.636	0.535	0.615	0.584
